# Laboratory results as given in PubChem BioAssay AID2060896 (Molecular Pharmacology Branch, DTP, NCI, 2025).
# System: 941728-121-R-J1-PDC complex spheroid viability
# Assay: Anticancer human tumor 941728-121-R-J1-PDC patient-derived lung adenocarcinoma cell line growth inhibition [RAS]
# Conditions: for IC50: curve of first compound; for viability, T/C: stronger effect = lower value
# Outline: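 Tumour cells grown as complex spheroids with HUVEC endothelial cells and mesenchymal stem cells, treated with RAS pathway inhibitor combinations. Each agent spans half-log steps from near clinical Cmax, or 10 microM where Cmax is unknown.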
# [1] = second compound 0.000949 µM, first compound 0.0316 µM
# [2] = second compound 0.000949 µM, first compound 0.1 µM
# [3] = second compound 0.000949 µM, first compound 0.316 µM
# [4] = second compound 0.000949 µM, first compound 1 µM
# [5] = second compound 0.000949 µM, first compound 3.16 µM
# [6] = second compound 0.000949 µM, first compound 10 µM
# [7] = second compound 0.003 µM, first compound 0.0316 µM
# [8] = second compound 0.003 µM, first compound 0.1 µM
# [9] = second compound 0.003 µM, first compound 0.316 µM
# [10] = second compound 0.003 µM, first compound 1 µM
# [11] = second compound 0.003 µM, first compound 3.16 µM
# [12] = second compound 0.003 µM, first compound 10 µM
# [13] = second compound 0.00949 µM, first compound 0.0316 µM
# [14] = second compound 0.00949 µM, first compound 0.1 µM
# [15] = second compound 0.00949 µM, first compound 0.316 µM
# [16] = second compound 0.00949 µM, first compound 1 µM
# [17] = second compound 0.00949 µM, first compound 3.16 µM
# [18] = second compound 0.00949 µM, first compound 10 µM
# [19] = second compound 0.03 µM, first compound 0.0316 µM
# [20] = second compound 0.03 µM, first compound 0.1 µM
# [21] = second compound 0.03 µM, first compound 0.316 µM
# [22] = second compound 0.03 µM, first compound 1 µM
# [23] = second compound 0.03 µM, first compound 3.16 µM
# [24] = second compound 0.03 µM, first compound 10 µM
# [25] = second compound 0.0949 µM, first compound 0.0316 µM
# [26] = second compound 0.0949 µM, first compound 0.1 µM
# [27] = second compound 0.0949 µM, first compound 0.316 µM
# [28] = second compound 0.0949 µM, first compound 1 µM
# [29] = second compound 0.0949 µM, first compound 3.16 µM
# [30] = second compound 0.0949 µM, first compound 10 µM
# [31] = second compound 0.3 µM, first compound 0.0316 µM
# [32] = second compound 0.3 µM, first compound 0.1 µM
# [33] = second compound 0.3 µM, first compound 0.316 µM
# [34] = second compound 0.3 µM, first compound 1 µM
# [35] = second compound 0.3 µM, first compound 3.16 µM
# [36] = second compound 0.3 µM, first compound 10 µM
# 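Further: spheroids exposed to compounds for 7 days before readout.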
# 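Wherever viability, T/C is given: 100% = DMSO vehicle control viability.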
smiles,measurement,setting,value
Cc1nc(N2CCC3(CC2)COC(C)C3N)c(CO)nc1Sc1ccnc(N)c1Cl (stereo unspecified) + CCn1c(-c2cccnc2C(C)OC)c2c3cc(ccc31)N1CCOC(CC(NC(=O)C(C(C)C)N(C)C(=O)C3(F)CCN(C(=O)C#CC(C)(C)N(C)C)CC3)C(=O)N3CCCC(N3)C(=O)OCC(C)(C)C2)C1,IC50,second compound 0.000949 µM,< 31.6 nM
same,IC50,second compound 0.003 µM,< 31.6 nM
same,IC50,second compound 0.00949 µM,< 31.6 nM
same,IC50,second compound 0.03 µM,< 31.6 nM
same,IC50,second compound 0.0949 µM,< 31.6 nM
same,IC50,second compound 0.3 µM,< 31.6 nM
same,"viability, T/C",[1],21.6%
same,"viability, T/C",[2],20.3%
same,"viability, T/C",[3],13.3%
same,"viability, T/C",[4],18.1%
same,"viability, T/C",[5],19.1%
same,"viability, T/C",[6],14.4%
same,"viability, T/C",[7],21.7%
same,"viability, T/C",[8],20.4%
same,"viability, T/C",[9],14.2%
same,"viability, T/C",[10],17.5%
same,"viability, T/C",[11],18.1%
same,"viability, T/C",[12],13.7%
same,"viability, T/C",[13],20.1%
same,"viability, T/C",[14],16.8%
same,"viability, T/C",[15],16.8%
same,"viability, T/C",[16],18.4%
same,"viability, T/C",[17],15.7%
same,"viability, T/C",[18],15.6%
same,"viability, T/C",[19],19.7%
same,"viability, T/C",[20],19%
same,"viability, T/C",[21],17.5%
same,"viability, T/C",[22],15.7%
same,"viability, T/C",[23],13.1%
same,"viability, T/C",[24],17.6%
same,"viability, T/C",[25],21.4%
same,"viability, T/C",[26],20.7%
same,"viability, T/C",[27],19.9%
same,"viability, T/C",[28],17.3%
same,"viability, T/C",[29],15.2%
same,"viability, T/C",[30],19.6%
same,"viability, T/C",[31],22.1%
same,"viability, T/C",[32],20.9%
same,"viability, T/C",[33],20.6%
same,"viability, T/C",[34],18.3%
same,"viability, T/C",[35],18.8%
same,"viability, T/C",[36],23.2%
NC1c2ccccc2OC12CCN(c1cnc3c(N4CCCc5ncccc54)n[nH]c3n1)CC2 (stereo unspecified) + CCn1c(-c2cccnc2C(C)OC)c2c3cc(ccc31)N1CCOC(CC(NC(=O)C(C(C)C)N(C)C(=O)C3(F)CCN(C(=O)C#CC(C)(C)N(C)C)CC3)C(=O)N3CCCC(N3)C(=O)OCC(C)(C)C2)C1,IC50,second compound 0.000949 µM,< 31.6 nM
same,IC50,second compound 0.003 µM,< 31.6 nM
same,IC50,second compound 0.00949 µM,< 31.6 nM
same,IC50,second compound 0.03 µM,< 31.6 nM
same,IC50,second compound 0.0949 µM,< 31.6 nM
same,IC50,second compound 0.3 µM,< 31.6 nM
same,"viability, T/C",[1],18.5%
same,"viability, T/C",[2],17.7%
same,"viability, T/C",[3],12.8%
same,"viability, T/C",[4],17.6%
same,"viability, T/C",[5],16.6%
same,"viability, T/C",[6],13.9%
same,"viability, T/C",[7],16.5%
same,"viability, T/C",[8],15.7%
same,"viability, T/C",[9],15.1%
same,"viability, T/C",[10],15.9%
same,"viability, T/C",[11],17.1%
same,"viability, T/C",[12],13.5%
same,"viability, T/C",[13],17.8%
same,"viability, T/C",[14],15.3%
same,"viability, T/C",[15],17.9%
same,"viability, T/C",[16],18.3%
same,"viability, T/C",[17],16.7%
same,"viability, T/C",[18],15.4%
same,"viability, T/C",[19],19.2%
same,"viability, T/C",[20],17.6%
same,"viability, T/C",[21],18.8%
same,"viability, T/C",[22],17.1%
same,"viability, T/C",[23],16.1%
same,"viability, T/C",[24],20.3%
same,"viability, T/C",[25],19.7%
same,"viability, T/C",[26],19.4%
same,"viability, T/C",[27],19%
same,"viability, T/C",[28],18.9%
same,"viability, T/C",[29],16%
same,"viability, T/C",[30],20.2%
same,"viability, T/C",[31],20.2%
same,"viability, T/C",[32],20.5%
same,"viability, T/C",[33],20.8%
same,"viability, T/C",[34],18.2%
same,"viability, T/C",[35],18.6%
same,"viability, T/C",[36],22.6%
Nc1ccn(C2OC(CO)C(O)C2(F)F)c(=O)n1 (stereo unspecified) + CCn1c(-c2cccnc2C(C)OC)c2c3cc(ccc31)N1CCOC(CC(NC(=O)C(C(C)C)N(C)C(=O)C3(F)CCN(C(=O)C#CC(C)(C)N(C)C)CC3)C(=O)N3CCCC(N3)C(=O)OCC(C)(C)C2)C1,IC50,second compound 0.000949 µM,< 3.16 nM
same,IC50,second compound 0.003 µM,< 3.16 nM
same,IC50,second compound 0.00949 µM,< 3.16 nM
same,IC50,second compound 0.03 µM,< 3.16 nM
same,IC50,second compound 0.0949 µM,< 3.16 nM
same,IC50,second compound 0.3 µM,< 3.16 nM
same,"viability, T/C","second compound 0.000949 µM, first compound 0.00316 µM",23.9%
same,"viability, T/C","second compound 0.000949 µM, first compound 0.01 µM",20.1%
same,"viability, T/C",[1],18.7%
same,"viability, T/C",[2],18.2%
same,"viability, T/C",[3],19.5%
same,"viability, T/C",[4],15.3%
same,"viability, T/C","second compound 0.003 µM, first compound 0.00316 µM",22%
same,"viability, T/C","second compound 0.003 µM, first compound 0.01 µM",18%
same,"viability, T/C",[7],16.9%
same,"viability, T/C",[8],19.5%
same,"viability, T/C",[9],18.4%
same,"viability, T/C",[10],13.2%
same,"viability, T/C","second compound 0.00949 µM, first compound 0.00316 µM",22.1%
same,"viability, T/C","second compound 0.00949 µM, first compound 0.01 µM",15.5%
same,"viability, T/C",[13],18.8%
same,"viability, T/C",[14],18.2%
same,"viability, T/C",[15],20.9%
same,"viability, T/C",[16],17%
same,"viability, T/C","second compound 0.03 µM, first compound 0.00316 µM",20.4%
same,"viability, T/C","second compound 0.03 µM, first compound 0.01 µM",20.4%
same,"viability, T/C",[19],21.4%
same,"viability, T/C",[20],17.4%
same,"viability, T/C",[21],14.5%
same,"viability, T/C",[22],17.7%
same,"viability, T/C","second compound 0.0949 µM, first compound 0.00316 µM",21.6%
same,"viability, T/C","second compound 0.0949 µM, first compound 0.01 µM",22.1%
same,"viability, T/C",[25],20.1%
same,"viability, T/C",[26],17.6%
same,"viability, T/C",[27],19.5%
same,"viability, T/C",[28],16.7%
same,"viability, T/C","second compound 0.3 µM, first compound 0.00316 µM",20.3%
same,"viability, T/C","second compound 0.3 µM, first compound 0.01 µM",20.6%
same,"viability, T/C",[31],17.6%
same,"viability, T/C",[32],18.1%
same,"viability, T/C",[33],16.6%
same,"viability, T/C",[34],19.2%
